The supplement of paper PMC10307832

Legend:
Assay in all cases: relative viability (nuclei count vs DMSO), 5 days (fraction); higher = more cells survive
[1] = compound: CNC(=O)c1ccccc1Sc1ccc2c(/C=C/c3ccccn3)n[nH]c2c1 [Axitinib] + Cc1cc(Nc2cc(N3CCN(C)CC3)nc(Sc3ccc(NC(=O)C4CC4)cc3)n2)n[nH]1 [Tozasertib] (partner 0.1 µM)
How it was run: (§1)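 After 5 days of treatment, lung cancer cells in 1536-well plates were fixed and stained in a single step (final 0.05% Triton X-100, 1% formaldehyde, 1 ug/ml Hoechst) and their nuclei counted on 4× images. Treatment had been applied by pin tool the day after seeding as one drug alone or as a fixed anchor-drug dose with five library-drug doses (not always all listed) in √10 steps. Relative viability is the nuclei count of treated wells divided by that of vehicle wells, and values are medians of duplicate plates.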

[2] = compound: Nc1nc(Nc2ccc3c(c2)CC[C@@H](N2CCCC2)CC3)nn1-c1cc2c(nn1)-c1ccccc1CCC2 [Bemcentinib] + Nc1nc2[nH]cc(CCc3ccc(C(=O)N[C@@H](CCC(=O)O)C(=O)O)cc3)c2c(=O)[nH]1 [Pemetrexed] (partner 0.2 µM)
How it was run: as §1

[3] = compound: Nc1nc(Nc2ccc3c(c2)CC[C@@H](N2CCCC2)CC3)nn1-c1cc2c(nn1)-c1ccccc1CCC2 [Bemcentinib] + CC1(C)CCC(c2ccc(Cl)cc2)=C(CN2CCN(c3ccc(C(=O)NS(=O)(=O)c4ccc(N[C@H](CCN5CCOCC5)CSc5ccccc5)c(S(=O)(=O)C(F)(F)F)c4)cc3)CC2)C1 [Navitoclax] (partner 0.5 µM)
How it was run: as §1

[4] = compound: CNC(=O)c1ccccc1Sc1ccc2c(/C=C/c3ccccn3)n[nH]c2c1 [Axitinib] + CC(C)C[C@H](NC(=O)[C@H](Cc1ccccc1)NC(=O)c1cnccn1)B(O)O [Bortezomib] (partner 0.002 µM)
How it was run: as §1

Cell Line | relative viability ([1]; first compound 0.005 µM) | relative viability ([1]; first compound 0.01581 µM) | relative viability ([1]; first compound 0.05 µM) | relative viability ([1]; first compound 0.1581 µM) | relative viability ([1]; first compound 0.5 µM) | relative viability ([2]; first compound 0.04 µM) | relative viability ([2]; first compound 0.1265 µM) | relative viability ([2]; first compound 0.4 µM) | relative viability ([2]; first compound 1.265 µM) | relative viability ([2]; first compound 4 µM) | relative viability ([3]; first compound 0.04 µM) | relative viability ([3]; first compound 0.1265 µM) | relative viability ([3]; first compound 0.4 µM) | relative viability ([3]; first compound 1.265 µM) | relative viability ([3]; first compound 4 µM) | relative viability ([4]; first compound 0.005 µM) | relative viability ([4]; first compound 0.01581 µM) | relative viability ([4]; first compound 0.05 µM) | relative viability ([4]; first compound 0.1581 µM) | relative viability ([4]; first compound 0.5 µM)
NCI-H1793 | 0.311 | 0.311 | 0.46 | 0.346 | 0.351 | 0.853 | 1.05 | 0.933 | 0.853 | 0.813 | 0.438 | 0.44 | 0.425 | 0.545 | 0.427 |  |  |  |  | 
HCC-78 | 0.6 | 0.493 | 0.493 | 0.477 | 0.446 | 0.923 | 1.01 | 0.942 | 0.895 | 0.95 | 0.657 | 0.792 | 0.859 | 0.943 | 0.836 | 0.643 | 0.491 | 0.305 | 0.499 | 0.566
NCI-H322M | 0.453 | 0.435 | 0.432 | 0.437 | 0.527 | 0.625 | 0.633 | 0.659 | 0.704 | 0.618 | 1.11 | 1.26 | 1.23 | 1.35 | 1.37 | 1.34 | 1.07 | 1.12 | 1.2 | 1.12
COR-L23 | 0.212 | 0.205 | 0.24 | 0.244 | 0.278 | 0.195 | 0.204 | 0.204 | 0.19 | 0.202 | 1.14 | 1.11 | 1.1 | 1.03 | 1.03 | 1.05 | 1.04 | 0.943 | 0.959 | 1.2
201T | 1 | 0.896 | 0.907 | 0.929 | 1.19 | 0.307 | 0.361 | 0.326 | 0.361 | 0.327 | 1.17 | 1.24 | 1.21 | 1.24 | 1.3 | 1.14 | 1.08 | 1.06 | 1.07 | 1.11
NCI-H2347 | 0.589 | 0.524 | 0.609 | 0.498 | 0.675 | 0.558 | 0.457 | 0.428 | 0.434 | 0.437 | 0.741 | 0.862 | 0.864 | 0.918 | 0.966 | 1.26 | 0.752 | 1.36 | 0.798 | 0.692
LCLC-97TM1 | 0.251 | 0.271 | 0.276 | 0.415 | 0.393 | 0.16 | 0.177 | 0.182 | 0.177 | 0.177 | 0.398 | 0.487 |  | 0.479 | 0.636 | 0.732 | 0.419 | 0.585 | 0.515 | 0.736
NCI-H2126 | 0.919 | 0.859 | 0.833 | 0.886 | 1 | 0.732 | 0.671 | 0.713 | 0.646 | 0.831 | 0.835 | 0.929 | 0.892 | 0.869 | 0.833 | 1.15 | 1.05 | 1.07 | 1.04 | 1.11
NCI-H1944 | 0.238 | 0.258 | 0.264 | 0.263 | 0.297 | 0.633 | 0.66 | 0.649 | 0.589 | 0.634 | 0.964 | 1.02 | 1.04 | 0.977 | 1.08 |  |  |  |  | 
HCC-15 | 0.461 | 0.564 | 0.435 | 0.49 | 0.605 | 0.231 | 0.219 | 0.226 | 0.218 | 0.221 | 0.713 | 0.799 | 0.776 | 0.726 | 0.721 | 1.08 | 0.995 | 1.01 | 0.988 | 1.06
NCI-H2405 | 0.773 | 0.795 | 0.853 | 0.785 | 1 | 1.01 | 1.12 | 1.14 | 1.11 | 1.19 | 0.788 | 0.868 | 0.859 | 0.877 | 0.84 | 1.03 | 0.982 | 1.03 | 0.946 | 0.958
COR-L 105 | 0.356 | 0.422 | 0.331 | 0.438 | 0.364 | 0.989 | 1.12 | 1.18 | 0.93 | 1.03 | 0.602 | 0.733 | 0.794 | 0.86 | 0.729 | 0.748 | 0.868 | 0.798 | 0.758 | 0.92
ABC-1 | 0.19 | 0.226 | 0.14 | 0.179 | 0.183 |  |  |  |  |  |  |  |  |  |  | 0.34 | 0.307 | 0.315 | 0.254 | 0.289
HCC-366 | 0.135 | 0.116 | 0.133 | 0.136 | 0.142 | 0.175 | 0.185 | 0.179 | 0.173 | 0.157 | 1.11 | 1.23 | 1.11 | 1.07 | 1.03 | 0.977 | 0.994 | 1.11 | 1 | 1.13
NCI-H1623 | 0.457 | 0.506 | 0.432 | 0.498 | 0.45 |  |  |  |  |  |  |  |  |  |  |  |  |  |  | 
NCI-H2342 | 0.618 | 0.685 | 0.448 | 0.593 | 0.528 | 0.703 | 0.805 | 0.823 | 0.728 | 0.787 |  |  |  |  |  |  |  |  |  | 
NCI-H2085 | 0.652 | 0.771 | 0.807 | 0.827 | 0.913 | 0.857 | 0.945 | 0.861 | 0.876 | 0.714 | 1.07 | 1.07 | 1.1 | 1.18 | 1.1 | 1.15 | 0.966 | 1.06 | 1.04 | 1.05
BEN | 0.495 | 0.574 | 0.582 | 0.513 | 0.466 | 0.62 | 0.895 | 0.782 | 0.678 | 0.592 | 0.0583 | 0.0756 | 0.0599 | 0.055 | 0.0552 | 0.804 | 0.781 | 0.554 | 0.75 | 0.543
